Assay results from patent US11872313B2, “Prodrug compositions, prodrug nanoparticles, and methods of use thereof” (Washington University, priority 2010, dated 2024).
Entries after “also recorded” stand apart in the source; their conditions may differ.

Assays:
[1] = In vitro release of fumagillin dissolved in a lipid membrane; assay type: physicochemical; conditions: FIG. 19A
Description: (§1) FIG. 19A and FIG. 19B depicts two graphs illustrating that fumagillin dissolved in a lipid membrane is stable in vitro but rapidly lost in vivo.

[2] = In vivo release of fumagillin dissolved in a lipid membrane; conditions: FIG. 19B
Description: as §1

Vx2 tumor = Vx2 tumor model, angiogenesis MR contrast enhancement; assay type: in vivo, rabbit; conditions: 1.5 T, FIG. 4A

CO[C@@H]1[C@H](OC(=O)/C=C/C=C/C=C/C=C/C(=O)O)CC[C@]2(CO2)[C@H]1[C@@]1(C)O[C@@H]1CC=C(C)C [fumagillin]
In vitro release of fumagillin [1]: sustained over 4 days | In vivo release of fumagillin [2]: rapidly releases in vivo; also recorded: occurs in a matter of minutes

CC(=O)O[C@H]1C(=O)[C@@]2(C)[C@H]([C@H](OC(=O)c3ccccc3)[C@]3(O)C[C@H](OC(=O)[C@H](O)[C@@H](NC(=O)c4ccccc4)c4ccccc4)C(C)=C1C3(C)C)[C@]1(OC(C)=O)CO[C@@H]1C[C@@H]2O [non-prodrug paclitaxel, paclitaxel]
change in angiogenesis contrast enhancement (Vx2 tumor): non-significant change
